Source: patent publication US11964976B1, “Substituted pyrido[3′,4′:4,5]pyrrolo[3,2-c][1,6]naphthyridines as CK2 inhibitors” (KING FAISAL UNIVERSITY, priority 2023, dated 2024)

Columns and labels:
MIAPaCa-2 (pancreas) = test: In vitro cytotoxic activity (MTT) assay, MIAPaCa-2; assay type: cell-based; conditions: Homo sapiens, MIA PaCa-2; MIAPaCa-2 (pancreas) cells, exposed for 96 hours; read-out: IC50, concentration eliciting 50% inhibition of cell proliferation
Procedure: (§1) Compounds 1-15 were screened for their in vitro cytotoxic activity utilizing a 3-(4,5-dimethyl-thiazol-2-yl)-2,5-diphenyltetrazolium bromide (MTT) assay against selected cancer human cell lines consisting of PC3 (prostate), HCT116 (colon), A375 (melanoma), H1299 (lung), MIAPaCa-2 (pancreas), HL60 (leukemia), MCF7 (breast), MDA-MB-231 (breast) (T. Mosmann, J. Immunol. Meth., 1983, 65, 55-63). The cells were cultured at 37° C. in RMPI1640 medium supplemented with 10% fetal bovine serum, 50 IU/mL penicillin, and 50 μg/mL streptomycin in a 5% CO2 incubator. All cells were sub-cultured 3 times/week by trypsinisation. Viable cells were seeded and allowed to adhere for 12 h before a test drug was added in 96-well plates at an initial density of 1.0×10^5 cells/mL. Tumor cell lines were separately exposed to various concentrations of the tested compounds followed by incubation at a temperature of 37° C. during 96 hours inside a medium of fresh RMPI 1640. Cells were subsequently incubated at 37° C. using MTT at 0.5 mg/mL during 4 hours. After removal of supernatant, formazan crystals were dissolved in isopropanol and the optical density was measured at 570 nm. CX-4945 was used as a positive control.

PC3 (prostate) = test: In vitro cytotoxic activity (MTT) assay, PC3; assay type: cell-based; conditions: Homo sapiens, Prostate cell; PC3 (prostate) cells, exposed for 96 hours; read-out: IC50, concentration eliciting 50% inhibition of cell proliferation
Procedure: as §1

[1] = target: T1, recombinant human CK2 (RRββ-holoenzyme) (Homo sapiens, UniProt P68400); test: CK2 Kinase Assay (33P-ATP, filter plate); assay type: biochemical; conditions: final ATP concentration 15 μM, 10 min at 30° C.; read-out: protein kinase CK2 IC50
T1 construct: purchased Millipore
T1 sequence (P68400 whole entry): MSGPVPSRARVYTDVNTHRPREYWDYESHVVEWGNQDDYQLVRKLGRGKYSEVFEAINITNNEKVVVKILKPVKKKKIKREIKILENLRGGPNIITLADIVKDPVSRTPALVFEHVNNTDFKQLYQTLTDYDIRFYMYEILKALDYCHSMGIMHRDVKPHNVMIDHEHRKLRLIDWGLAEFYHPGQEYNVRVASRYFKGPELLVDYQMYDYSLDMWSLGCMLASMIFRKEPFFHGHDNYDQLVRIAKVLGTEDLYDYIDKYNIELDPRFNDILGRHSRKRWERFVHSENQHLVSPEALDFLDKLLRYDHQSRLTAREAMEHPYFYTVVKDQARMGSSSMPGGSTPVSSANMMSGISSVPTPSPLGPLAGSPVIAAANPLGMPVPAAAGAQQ
T1 sequence (P67870 whole entry partner): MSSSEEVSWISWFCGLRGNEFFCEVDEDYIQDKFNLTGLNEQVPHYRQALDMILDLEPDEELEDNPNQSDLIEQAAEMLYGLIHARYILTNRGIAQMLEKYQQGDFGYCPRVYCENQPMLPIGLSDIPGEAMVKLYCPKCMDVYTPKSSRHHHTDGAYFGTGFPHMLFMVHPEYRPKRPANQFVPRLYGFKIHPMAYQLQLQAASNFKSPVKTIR
Procedure: CK2 Kinase Assay was conducted using the protocol as described in Pierre F. et al; J. Med. Chem. 2011, 54, 635-654. The tested compounds in aqueous solution were added at a volume of 10 μL to a reaction mixture comprising 10 μL of assay dilution buffer (ADB; 20 mM MOPS, pH 7.2, 25 mM β-glycerol phosphate, 5 mM EGTA, 1 mM sodium orthovanadate, and 1 mM dithiothreitol), 10 μL of substrate peptide (RRRDDDSDDD, dissolved in ADB at a concentration of 1 mM), 10 μL of recombinant human CK2 (RRββ-holoenzyme, 25 ng dissolved in ADB; Millipore). Reactions were initiated by the addition of 10 μL of ATP solution (90% 75 mMMgCl2, 75 μM ATP (final ATP concentration: 15 μM) dissolved in ADB; 10% [γ-33P] ATP (stock 1mCi/100 μL; 3000 Ci/mmol (Perkin-Elmer) and maintained for 10 min at 30° C. The reactions were quenched with 100 μL of 0.75% phosphoric acid and then transferred to and filtered through a phosphor cellulose filter plate (Millipore). After washing each well five times with 0.75% phosphoric acid, the plate was dried under vacuum for 5 min and, following the addition of 15 μL of scintillation fluid to each well, the residual radioactivity was measured using a Wallac luminescence counter. The IC50 values were derived from eight concentrations of test inhibitors.

HCT116 (colon) = test: In vitro cytotoxic activity (MTT) assay, HCT116; assay type: cell-based; conditions: Homo sapiens, HCT-116; HCT116 (colon) cells, exposed for 96 hours; read-out: IC50, concentration eliciting 50% inhibition of cell proliferation
Procedure: as §1

MCF7 (breast) = test: In vitro cytotoxic activity (MTT) assay, MCF7; assay type: cell-based; conditions: Homo sapiens; MCF7 (breast) cells, exposed for 96 hours; read-out: IC50, concentration eliciting 50% inhibition of cell proliferation
Procedure: as §1

H1299 (lung) = test: In vitro cytotoxic activity (MTT) assay, H1299; assay type: cell-based; conditions: Homo sapiens, NCI-H1299; H1299 (lung) cells, exposed for 96 hours; read-out: IC50, concentration eliciting 50% inhibition of cell proliferation
Procedure: as §1

HL60 (leukemia) = test: In vitro cytotoxic activity (MTT) assay, HL60; assay type: cell-based; conditions: Homo sapiens, HL-60; HL60 (leukemia) cells, exposed for 96 hours; read-out: IC50, concentration eliciting 50% inhibition of cell proliferation
Procedure: as §1

MDA-MB-231 (breast) = test: In vitro cytotoxic activity (MTT) assay, MDA-MB-231; assay type: cell-based; conditions: Homo sapiens; MDA-MB-231 (breast) cells, exposed for 96 hours; read-out: IC50, concentration eliciting 50% inhibition of cell proliferation
Procedure: as §1

A375 (melanoma) = test: In vitro cytotoxic activity (MTT) assay, A375; assay type: cell-based; conditions: Homo sapiens, A-375; A375 (melanoma) cells, exposed for 96 hours; read-out: IC50, concentration eliciting 50% inhibition of cell proliferation
Procedure: as §1

## Clc1cccc(Nc2nc3ccncc3c3[nH]c4ccncc4c23)c1 [Compound 1, N-(3-chlorophenyl)-11H-pyrido[3′,4′:4,5]pyrrolo[3,2-c][1,6]naphthyridin-6-amine]
MIAPaCa-2 (pancreas)
  IC50: 1100 nM
PC3 (prostate)
  IC50: 1000 nM
[1]
  IC50: 29 nM
HCT116 (colon)
  IC50: 1300 nM
MCF7 (breast)
  IC50: 3100 nM
H1299 (lung)
  IC50: 1200 nM
HL60 (leukemia)
  IC50: 3500 nM
MDA-MB-231 (breast)
  IC50: 2600 nM
A375 (melanoma)
  IC50: 4400 nM
